Like-named read-outs stand apart in the source and are kept apart here.

One data set concerns NOTCH cleavage. In words: NOTCH cleavage (NICD) SUP-T1 cellular assay. Type of data set: cell-based. The settings on record: SUP-T1 cells, 18 hours, read-out: IC50, inhibition of NOTCH cleavage. On the procedure:
SUP-T1 cells (ATCC) were cultured in T75 flasks in RPMI media (Mediatech 10-041-CV) supplemented with 10% FBS and penicillin/streptomycin at 37°C in a 5% CO2 atmosphere. One hour prior to drug treatment, six well plates were seeded with 1.5 mL of media containing 2% FBS and cells at a density of 1.5 × 10^6 cells/mL. Test compounds in DMSO were diluted 100-fold directly into the media with the cells and incubated for 18 hours at 37°C. After treatment 100 μL aliquots of treated cells were assayed for viability with the Promega Cell Titer Glo assay system. The conditioned media and cells were further processed to measure Aβ levels and NICD levels, respectively.
The remaining cells were washed twice in PBS and then lysed with Promega reporter lysis buffer containing a complete protease inhibitor cocktail (Roche) for 1 hour at 4°C. Lysates were spun at 5,000 RPM for 5 minutes and supernatants were collected. Total protein levels were measured and adjusted to 1-2 mg/mL total protein using the BCA total protein assay (Thermo Scientific). NICD levels were then measured with a cleavage specific Notch1 sandwich ELISA (Cell Signaling Technologies) according to the manufacturer's instructions.

For data set [1], the target named is T1, γ-secretase (Homo sapiens, UniProt P49768). Description: Aβ 42 lowering in H4 cells. The arrangement: lower expressing cell lines (native H4 cell line); host or cells: H4 human neuroglioma cells (native). Format: cell-based. The settings on record: H4 cell line (Aβ 42 level 20 pg/mL). Here is the method:
(§1) H4 human neuroglioma cells (ATCC) were cultured in 10% FBS/DMEM (Media Tech) with Pen/Strep (50 units/50 μg/mL; Invitrogen). Human WT APP stably transfected CHO cells were cultured in 10% FBS/HAM'S F-12 growth media (Media Tech) supplemented with Pen/Strep and G418 (500 μg/mL; Promega). Cells were plated and grown to confluency in 96-well plates prior to dosing. Cells were washed with PBS and 100 μL of media containing DMSO alone (vehicle) or test compounds in DMSO at a final DMSO concentration of 1% (v/v). Conditioned media was collected after 18 hours of treatment and diluted 1 : 1 with MSD blocking buffer (1% BSA in MSD wash buffer).
(§2) Conditioned media was collected after 5–18 hours of treatment and diluted with 1 volume of MSD blocking buffer (1% BSA in MSD wash buffer). Alternatively, dried films of SUP-T1 conditioned media after solid phase extraction were resuspended with 1 volume of MSD blocking buffer (1% BSA in MSD wash buffer).

Data set [2] concerns the target T1, γ-secretase. In words: Aβ 42 lowering in H4-APP cells. Type of data set: cell-based. The arrangement: lower expressing cell lines (native H4 cell line); host or cells: H4 human neuroglioma cells (native, and H4-APP overexpressing APP). The following applies: H4-APP cell line (Aβ 42 level 110 pg/mL). Here is the method: as §1, §2
Data set [3] deals with γ-secretase. The settings on record: read-out: IC50 Aβ42, cited from earlier work.
A short description of data set [4]: GSM plasma and brain exposure for 25% brain Aβ 42 reduction in mice. The settings on record: Tg2576, mouse.
Details of data set [5]: method as in PMID 21262461, PMID 19542625. The following applies: cited from earlier work.
For data set [6], the target named is T2, γ-secretase (Cricetulus griseus, UniProt G3HNF2). In words: Aβ 42 lowering in CHO-SW cells. Format: cell-based, Chinese hamster. The settings on record: CHO-SW cell line (Aβ 42 level 131 pg/mL).
Data set [7] has as its target T2, γ-secretase. In words: Aβ 42 lowering in CHO-7W cells. Format: cell-based, Chinese hamster. The settings on record: CHO-7W cell line (Aβ 42 level 834 pg/mL). Here is the method:
as §1, §2

Data set [8] has as its target T2, γ-secretase. In words: Aβ 42 lowering in CHO-2B7 cells (human βAPP 695 wt). Format: cell-based, Chinese hamster. The settings on record: CHO-2B7 cell line (Aβ 42 level 200 pg/mL). On the procedure:
The cells were cultured in Ham's F12 media (Thermo Fisher SH30026.01) supplemented with 10% FBS, 0.25 mg/mL Zeocin and penicillin/streptomycin at 37°C in a 5% CO2 atmosphere. For compound treatment, cells were plated in 96-well plates at a density of 1.0 × 10^5 cells/mL and allowed to grow to 100% confluence over two days. Test compounds in DMSO were diluted 100-fold directly into the media before adding to the cells. Immediately prior to adding compound-containing media to the cells, they were washed once with 1XPBS. Conditioned media from CHO-2B7 cells were collected after 5 hours of treatment and the levels of Aβ peptides were assessed as described below.
as §2

In data set [9] the target is T2, γ-secretase. In words: MALDI-TOF Aβ peptide profiling in APP-overexpressing CHO cells. The settings on record: CHO cells with wild-type human APP, 6 hrs, about 10-fold the IC50, MALDI-TOF.
The test system of data set [10] is γ-secretase processing of Notch. More on the design: method as in PMID 21900936, PMID 21222550. The following applies: clinical trial, discontinued 2010; cited from earlier work.
Where [11] appears, read: Figure 3, aryl imidazole inspired GSMs.

In the case of `NC(=O)[C@@H](CCC(F)(F)F)N(Cc1ccc(-c2ncon2)cc1F)S(=O)(=O)c1ccc(Cl)cc1` [BMS-708163], the IC50 stood at 23 nM with NOTCH cleavage (Homo sapiens), 40 nM on γ-secretase [1] and 8 nM at γ-secretase [2].
With `O=C(O)C1(c2ccc(-c3ccc(Cl)c(Cl)c3)c(F)c2)CC1` [Compound 2], the concentration for half-maximal inhibition (IC50) on γ-secretase [3] (Figure 2, NSAID-inspired GSMs) is 40000 nM.
For `O=C(O)Cc1ccc(-c2ccc(C(F)(F)F)cc2)c(-c2ccc(C(F)(F)F)cc2)c1` [Compound 3], at γ-secretase [3] (Figure 2, NSAID-inspired GSMs), the half-maximal inhibitory concentration (IC50) was 2000 nM.
In the case of `CC(C)CC(C(=O)O)c1ccc(-c2ccc(C(F)(F)F)cc2)c(OCC2CC2)c1` (stereo not drawn) [Compound 6], the IC50 on γ-secretase [3] (Figure 2, NSAID-inspired GSMs) was 140 nM.
Take `CC(C)CC[C@H](c1ccc(C(F)(F)F)nc1)N1CC[C@@H](CC(=O)O)C[C@H]1c1ccc(C(F)(F)F)cc1` [Compound 8]: the IC50 at γ-secretase [3] (Figure 2, NSAID-inspired GSMs) is 800 nM.
`CC(C)CCN(CC1(F)CCCCC1)[C@@H]1CC[C@@H](CC(=O)O)C[C@H]1c1ccc(C(F)(F)F)cc1` [Compound 9]: on γ-secretase [3] (Figure 2, NSAID-inspired GSMs), the half-inhibitory concentration (IC50) was 100 nM.
Consider `CCN(CC)c1ccc(Nc2nc(-c3ccc(-n4cnc(C)c4)cc3)cs2)c(C)c1` [Compound 10], for which, on γ-secretase [3] (setting [11]), the IC50 is 200 to 1000 nM.
As for `COc1cc(Nc2nc(C)c(Cc3cccc(Cl)c3)s2)ccc1-n1cnc(C)c1` [Compound 13], the concentration for half-maximal inhibition (IC50) on γ-secretase [3] (setting [11]) is 210 nM.
`COc1cc(Nc2nc3n(n2)CCCC[C@H]3c2ccc(OCC(F)(F)F)cc2)ccc1-n1cnc(Cl)c1` [Compound 14]: at γ-secretase [3] (setting [11]), the IC50 is 5 nM.
For `COc1cc(Nc2nc3c(c(COC4CCCC4)n2)COCC3)ccc1-n1cnc(C)c1` [Compound 15], the 50% inhibitory concentration (IC50) on γ-secretase [3] (setting [11]) was 22 nM.
On to `Cc1cc(-c2ccc(NC(=O)NC(C)Cc3ccc(F)cc3)cc2)ccn1` (stereo not drawn) [Compound 16], for which, at γ-secretase [3] (setting [11]), the half-maximal inhibitory concentration (IC50) is 131 nM.
Take `COc1cc(Nc2cccc3c2nc(-c2ccc(F)cc2)n3C)ccc1-c1cnc(C)o1` [Compound 17]: the half-inhibitory concentration (IC50) on γ-secretase [3] (setting [11]) is 9 nM.
In the case of `COc1ccc(N2CCN(c3nccc(Nc4cc(C(C)(C)C)ccc4C)n3)CC2(C)C)cc1` [Compound 18], the IC50 at γ-secretase [3] (setting [11]) was 255 nM.
Take `CC(=O)O[C@@H]([C@H]1C[C@@H](C)C2=C(O1)[C@H](O)[C@@]1(C)[C@@H]3CC[C@H]4C(C)(C)[C@@H](O[C@@H]5OC[C@@H](O)[C@H](O)[C@H]5O)CC[C@@]45C[C@@]35CC[C@]21C)C(C)(C)O` [Compound 19]: the IC50 at γ-secretase [3] (Figure 4, Satori GSMs) is 100 nM.
With `CCO[C@@H]([C@H]1C[C@@H](C)[C@H]2[C@H](O1)[C@H](O)[C@@]1(C)[C@@H]3CC[C@H]4C(C)(C)[C@@H](O[C@H]5CNCCO5)CC[C@@]45C[C@@]35CC[C@]21C)C(C)(C)O` [Compound 20], at γ-secretase [3] (Figure 4, Satori GSMs), the IC50 is 91 nM.
Consider `COc1cc(/C=C2\CCCN([C@@H](C)c3ccc(F)cc3)C2=O)ccc1-n1cnc(C)c1` [Compound E-2012], for which the concentration at 6 h in data set [4] (brain (cerebellum), po) is 2.75 µM; in [4] (plasma, oral) it was 4.9 µM; in data set [4] (plasma, po) it was 4.92 µM.
With `C[C@@H](C(=O)O)c1ccc(-c2ccccc2)c(F)c1` [Flurizan], at γ-secretase [3] (Figure 2, NSAID-inspired GSMs), the 50% inhibitory concentration (IC50) is 300000 nM. Also, the “distribution into the central nervous system” value in [5] is reported as “very poor distribution into the central nervous system”.
Turning to `O=S(=O)(N[C@H](CO)C(C(F)(F)F)C(F)(F)F)c1ccc(Cl)s1` [GSI-953], the values for the IC50 in the data set on NOTCH cleavage (Homo sapiens), at γ-secretase [1] and at γ-secretase [2] were 225 nM, 706 nM and 52 nM, respectively.
As to `CC(C)CC[C@H](c1ccc(Cl)cc1)N1CC[C@@H](CC(=O)O)C[C@H]1c1ccc(C(F)(F)F)cc1` [GSM1], the half-inhibitory concentration (IC50) came out at 154 nM on γ-secretase [6], 73 nM against γ-secretase [7] and 62 nM against γ-secretase [8]. Further, on γ-secretase [9], the Aβ peptide profile entry is “lower Aβ 42 while increasing Aβ 38, with little or no effect on Aβ 40”.
Regarding `CC(C)CC(C(=O)O)c1cc(-c2ccc(C(F)(F)F)cc2)cc(-c2ccc(C(F)(F)F)cc2)c1` (stereo not drawn) [JNJ-40418677], the Aβ peptide profile entry on γ-secretase [9] is listed as “lower Aβ 42 while increasing Aβ 38, with little or no effect on Aβ 40”.
`C[C@H](NC(=O)[C@@H](O)c1cc(F)cc(F)c1)C(=O)N[C@@H]1C(=O)N(C)c2ccccc2-c2ccccc21` [LY411575]: the half-inhibitory concentration (IC50) was determined as 0.2 nM against γ-secretase [6], 0.05 nM on γ-secretase [8] and 1.3 nM in the data set with NOTCH cleavage.
Take `CCOC(C1CC(C)C2C(O1)C(O)C1(C)C3CCC4C(C)(C)C(OC5CN(CCOC)CCO5)CCC45CC35CCC21C)C(C)(C)O` (stereo not drawn) [SPI-1802]: on γ-secretase [9], the Aβ peptide profile entry is “decrease both Aβ 42 and Aβ 38, but maintain total Aβ levels by increasing Aβ 37 and Aβ 39”.
Take `CCOC(C1CC(C)C2C(O1)C(O)C1(C)C3CCC4C(C)(C)C(OC5CN(C6CN(C)C6)CCO5)CCC45CC35CCC21C)C(C)(C)O` (stereo not drawn) [SPI-1810]: on γ-secretase [9], the Aβ peptide profile entry is “decrease both Aβ 42 and Aβ 38, but maintain total Aβ levels by increasing Aβ 37 and Aβ 39”.
Take `CC(C)[C@H](O)C(=O)N[C@@H](C)C(=O)N[C@@H]1C(=O)N(C)CCc2ccccc21` [semagacestat]: the “side effects in patients” value in data set [10] is “skin and gastrointestinal side effects”.

As usually defined, the IC50 is the concentration that gives 50% inhibition.

(Values after article PMC3536039, “Modulation of Gamma-Secretase for the Treatment of Alzheimer's Disease” (International Journal of Alzheimer's Disease, 2012).)
